In US12448394B2, “Heterocyclic pyrazole derivatives as type III receptor tyrosine kinase inhibitors” (DEVELOPMENT CENTER FOR BIOTECHNOLOGY, priority 2019, dated 2025):

Columns and labels:
FLT3-D835Y mutant kinase = biological target: T1, FLT3-D835Y mutant kinase (Homo sapiens, UniProt P36888, D835Y); test: FLT3-D835Y mutant kinase assay (AlphaScreen); format: biochemical; conditions: read-out: Ranking of IC50 values, FLT3-D835Y
T1 construct: purchased SignalChem
T1 sequence (P36888 27-993 D835Y): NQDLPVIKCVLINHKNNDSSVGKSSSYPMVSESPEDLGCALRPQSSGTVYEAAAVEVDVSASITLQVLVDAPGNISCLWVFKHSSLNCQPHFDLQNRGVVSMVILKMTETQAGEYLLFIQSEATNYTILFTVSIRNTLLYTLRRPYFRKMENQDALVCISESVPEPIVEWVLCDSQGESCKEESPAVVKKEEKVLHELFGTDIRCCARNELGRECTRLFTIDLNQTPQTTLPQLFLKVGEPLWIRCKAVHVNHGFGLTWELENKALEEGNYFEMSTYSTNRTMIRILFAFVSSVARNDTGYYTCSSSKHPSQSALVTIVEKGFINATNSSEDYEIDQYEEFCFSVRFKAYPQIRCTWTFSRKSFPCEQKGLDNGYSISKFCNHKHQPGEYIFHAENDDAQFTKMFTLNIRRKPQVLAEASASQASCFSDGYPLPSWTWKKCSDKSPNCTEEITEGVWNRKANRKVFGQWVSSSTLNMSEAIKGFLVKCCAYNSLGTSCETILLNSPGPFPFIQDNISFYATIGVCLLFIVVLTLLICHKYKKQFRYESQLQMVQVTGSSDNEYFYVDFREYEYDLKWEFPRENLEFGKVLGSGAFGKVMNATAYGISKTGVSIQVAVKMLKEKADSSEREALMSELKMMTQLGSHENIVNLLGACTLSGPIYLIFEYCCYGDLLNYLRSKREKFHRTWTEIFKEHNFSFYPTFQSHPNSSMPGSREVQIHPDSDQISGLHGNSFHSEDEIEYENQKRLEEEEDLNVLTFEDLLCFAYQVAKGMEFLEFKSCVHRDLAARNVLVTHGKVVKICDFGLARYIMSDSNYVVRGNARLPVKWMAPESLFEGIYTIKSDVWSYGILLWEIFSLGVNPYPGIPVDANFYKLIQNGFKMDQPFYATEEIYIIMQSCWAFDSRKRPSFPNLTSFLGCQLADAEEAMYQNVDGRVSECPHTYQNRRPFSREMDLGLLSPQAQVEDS
Procedure: Inhibition of FLT3-D835Y mutant kinase activity by a test compound disclosed herein was estimated by AlphaScreen (PerkinElmer). Standard assay conditions were 1 ng of recombinant FLT3-D835Y mutant kinase (SignalChem) with 6 ng Biotin-conjugated Poly-(Glu 4: Tyr 1) (Cisbio) in the assay buffer (10 μM ATP, 10 mM MOPs, pH7.0, 0.21 mM EDTA, 0.5% glycerol, 1 mg/mL BSA, 0.01% 2-mercaptoethanol, 0.001% Brij35, 10 mM MgCl2) in a final volume of 25 μL. Reactions were incubated at 30° C. for 30 min and stopped by adding 5 μL of 50 mM EDTA. Analysis of resulting product using an AlphaScreen kit and counted with Enspire Alpha (PerkinElmer). […] The IC50 values of inhibitors were determined after carrying out assays with each compound at serially diluted concentrations in duplication. The results were analyzed using linear regression software (GraphPad Prism 5; GraphPad Software Inc.)

MET kinase = biological target: T2, MET kinase (Homo sapiens, UniProt P08581); test: MET kinase assay (AlphaScreen, counter screen); format: biochemical; conditions: read-out: Ranking of IC50 values, MET
T2 construct: purchased SignalChem
T2 sequence (P08581 25-1390): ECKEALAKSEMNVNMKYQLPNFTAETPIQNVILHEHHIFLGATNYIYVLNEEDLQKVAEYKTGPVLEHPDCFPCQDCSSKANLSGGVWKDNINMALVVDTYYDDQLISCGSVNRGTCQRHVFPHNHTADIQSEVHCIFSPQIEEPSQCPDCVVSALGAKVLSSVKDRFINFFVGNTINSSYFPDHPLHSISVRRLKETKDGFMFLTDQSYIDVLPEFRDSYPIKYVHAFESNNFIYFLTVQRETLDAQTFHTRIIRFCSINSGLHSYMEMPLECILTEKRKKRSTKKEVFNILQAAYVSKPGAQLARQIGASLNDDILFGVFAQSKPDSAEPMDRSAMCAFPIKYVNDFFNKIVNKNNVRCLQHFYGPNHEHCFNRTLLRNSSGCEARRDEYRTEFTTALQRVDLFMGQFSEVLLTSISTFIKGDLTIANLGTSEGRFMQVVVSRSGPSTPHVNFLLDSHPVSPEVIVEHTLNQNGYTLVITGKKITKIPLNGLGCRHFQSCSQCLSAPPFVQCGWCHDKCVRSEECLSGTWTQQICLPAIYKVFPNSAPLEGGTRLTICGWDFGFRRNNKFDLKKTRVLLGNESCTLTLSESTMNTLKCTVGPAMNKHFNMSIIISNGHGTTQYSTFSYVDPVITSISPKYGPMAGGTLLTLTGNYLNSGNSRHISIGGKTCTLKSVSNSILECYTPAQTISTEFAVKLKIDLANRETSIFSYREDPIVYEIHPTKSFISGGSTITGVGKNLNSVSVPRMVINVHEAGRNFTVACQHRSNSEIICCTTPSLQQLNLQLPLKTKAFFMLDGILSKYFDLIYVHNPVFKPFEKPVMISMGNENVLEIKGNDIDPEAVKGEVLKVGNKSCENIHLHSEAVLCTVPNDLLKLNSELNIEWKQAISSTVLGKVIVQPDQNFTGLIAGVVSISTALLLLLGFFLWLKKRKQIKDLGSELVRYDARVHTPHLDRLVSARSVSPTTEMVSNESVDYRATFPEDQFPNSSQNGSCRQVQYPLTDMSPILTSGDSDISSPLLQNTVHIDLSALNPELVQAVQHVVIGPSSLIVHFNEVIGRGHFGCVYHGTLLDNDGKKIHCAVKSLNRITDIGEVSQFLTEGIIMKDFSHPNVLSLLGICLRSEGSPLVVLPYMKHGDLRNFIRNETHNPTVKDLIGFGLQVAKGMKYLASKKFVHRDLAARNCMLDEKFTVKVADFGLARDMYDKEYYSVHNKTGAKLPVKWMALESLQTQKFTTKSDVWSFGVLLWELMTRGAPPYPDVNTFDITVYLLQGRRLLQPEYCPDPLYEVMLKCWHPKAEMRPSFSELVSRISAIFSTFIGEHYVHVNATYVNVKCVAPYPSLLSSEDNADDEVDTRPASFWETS
Procedure: Because MET kinase belonged to Class VIII RTK family have one transmembrane a chain linked with one extracellular β chain which is different form Class III RTK family with 5 Immunoglobin-like extracellular domains. Standard assay conditions were 1 ng of recombinant MET kinase (SignalChem) with 3 ng Biotin-conjugated Poly-(Glu 4: Tyr 1) (Cisbio) in the assay buffer ([…], 10 mM MOPs, pH 7.0, 0.21 mM EDTA, 0.5% glycerol, 1 mg/mL BSA, 0.01% 2-mercaptoethanol, 0.001% Brij35, 10 mM MgCl2) in a final volume of 25 μL. Reactions were incubated at 30° C. for 45 min and stopped by adding 5 μL of 50 mM EDTA. Analysis of resulting product using an AlphaScreen kit and counted with Enspire Alpha (PerkinElmer). […] The IC50 values of inhibitors were determined after carrying out assays with each compound at serially diluted concentrations in duplication. The results were analyzed using linear regression software (GraphPad Prism 5; GraphPad Software Inc.)

[1] = system: Molm-14 human acute myeloid leukemia cell with FLT3-ITD mutation; test: Molm-14 cell proliferation assay (CellTiter 96); format: cell-based; conditions: Homo sapiens; Molm-14 cells, 72 hours treatment, CellTiter96; read-out: anti-proliferation activity Molm-14 (FLT3-ITD), IC50 ranking
Procedure: (§1) Inhibitions of cell growths by compounds were measured using CellTiter™-96 assay. The cytotoxicities of compounds of the invention were evaluated in cell line panels with different signaling pathway dependencies, including MV4-11 human acute myeloid leukemia cell with FLT3-ITD mutation, Molm-14 human acute myeloid leukemia cell with FLT3-ITD mutation, THP-1 human acute monocytic leukemia cell with NRAS G12D mutation, A375 melanoma cell with BRAF V600E mutation, and HCC827 NSCLC cell with EGFR exon 19 deletion mutation.
The compounds disclosed herein were tested in Molm-14 cell proliferation assay to determine their cellular potencies against FLT3 signal pathway dependent cell growths. Molm-14 cells are human acute myeloid leukemia (AML) cells harboring ligand-independent FLT3-ITD activating mutation, which renders the abnormal proliferation of the AML cells FLT3 signaling pathway dependent. Inhibition of FLT3 kinase activity will result in reduced growths and/or cell deaths. […] Briefly, cells were grown in RPMI 1640 medium supplemented with 10% heat inactivated fetal bovine serum and incubated at 37° C. in 5% CO2 atmosphere. Cells were allowed to expand until reaching saturation, at which point they were sub-cultured or harvested for assay use.
(§2) MV4-11, Molm-14, THP-1, A375, and HCC827 cells were seeded into 96-well plates at 6500, 25000, 5000, 2000 and 8000 cells/well, respectively, and incubated at 37° C., 5% CO2 overnight. Then, these seeded cells were treated with increasing concentrations of the test compounds and incubated for another 72 hours. At the end of the incubation, CellTiter96® AQueous One Solution Reagent (Promega, […]) was added and incubated for the additional 2˜4 hours. Cell viability was determined by measuring absorbance at 490 nm using EMax® microplate reader (Molecular Devices, San Jose, CA, USA).

[2] = system: A375 melanoma cell with BRAF V600E mutation; test: A375 cell proliferation assay (counter screen); format: cell-based, human; conditions: Homo sapiens, A-375, A375 cells, 72 hours treatment, CellTiter96, read-out: anti-proliferation activity A375 BRAF V600E, IC50 ranking
Procedure: as §1
A375 cells are melanoma cells encoding BRFA V600E mutation, which renders the cell growth dependent on BRAF signaling instead of class III RTKs signaling. A375 cells (catalog #CRL-1619) were obtained from the ATCC. Briefly, cells were cultured in DMEM containing 10% FBS and incubated at 37° C. in 5% CO2 atmosphere. Cells were allowed to expand until reaching saturation, at which point they were sub-cultured or harvested for assay use.
as §2

Work on `CN(C)c1ccc(-c2cc3c(s2)Cc2c(-c4ccc5cnn(C)c5c4)n[nH]c2-3)cn1` [Compound 5, N,N-dimethyl-5-(3-(1-methyl-1H-indazol-6-yl)-1,4-dihydrothieno [2′,3′:4,5]cyclopenta[1,2-c]pyrazol-6-yl)pyridin-2-amine] yielded an IC50 (FLT3-D835Y mutant kinase) of 1 to 10 nM, an IC50 (MET kinase) greater than 1000 nM and an IC50 [1] of 100 to 300 nM. The IC50 [2] was greater than 10000 nM.
Work on `c1cc(-c2cc3c(s2)Cc2c(-c4ccc5cn[nH]c5c4)n[nH]c2-3)ccc1CN1CCOCC1` [Compound 6, 4-(4-(3-(1H-indazol-6-yl)-1,4-dihydrothieno[2′,3′:4,5]cyclopenta[1,2-c]pyrazol-6-yl)benzyl)morpholine] yielded an IC50 (FLT3-D835Y mutant kinase) of less than 1 nM, an IC50 (MET kinase) greater than 1000 nM and an IC50 [1] of less than 30 nM. The IC50 [2] was greater than 10000 nM.
`C[C@@H]1CN(Cc2ccc(-c3cc4c(s3)Cc3c(-c5ccc6cn[nH]c6c5)n[nH]c3-4)cc2)C[C@H](C)O1` [Compound 7, (2S,6R)-4-(4-(3-(1H-indazol-6-yl)-1,4-dihydrothieno[2′,3′:4,5]cyclopenta [1,2-c]pyrazol-6-yl)benzyl)-2,6-dimethylmorpholine] showed an IC50 (FLT3-D835Y mutant kinase) of 1 to 10 nM, an IC50 (MET kinase) greater than 1000 nM and an IC50 [1] of less than 30 nM. The IC50 [2] was greater than 10000 nM.
With `Cn1ncc2ccc(-c3n[nH]c4c3Cc3sc(-c5ccc(CN6CCOCC6)cc5)cc3-4)cc21` [Compound 8, 4-(4-(3-(1-methyl-1H-indazol-6-yl)-1,4-dihydro-thieno[2′,3′:4,5]cyclopenta [1,2-c]pyrazol-6-yl)benzyl) morpholine] the IC50 (FLT3-D835Y mutant kinase) was 1 to 10 nM, the IC50 (MET kinase) was greater than 1000 nM and the IC50 [1] was 30 to 100 nM. For the same molecule, the IC50 [2] was greater than 10000 nM.
Molecule `C[C@@H]1CN(Cc2ccc(-c3cc4c(s3)Cc3c(-c5ccc6cnn(C)c6c5)n[nH]c3-4)cn2)C[C@H](C)O1` [Compound 9, (2S,6R)-2,6-dimethyl-4-((5-(3-(1-methyl-lH-indazol-6-yl)-1,4-dihydro-thieno[2′,3′:4,5]cyclopenta [1,2-c]pyrazol-6-yl)pyridin-2-yl)methyl) morpholine] has an IC50 (FLT3-D835Y mutant kinase) of less than 1 nM, an IC50 (MET kinase) greater than 1000 nM and an IC50 [1] of less than 30 nM. The IC50 [2] was greater than 10000 nM.
`Cn1ncc2ccc(-c3n[nH]c4c3Cc3sc(-c5ccc(CN6CCOCC6)nc5)cc3-4)cc21` [Compound 10, 4-((5-(3-(1-methyl-1H-indazol-6-yl)-1,4-dihydro-thieno[2′,3′:4,5]cyclopenta [1,2-c]pyrazol-6-yl)pyridin-2-yl)methyl)morpholine] was tested, and the IC50 (FLT3-D835Y mutant kinase) was less than 1 nM, the IC50 (MET kinase) was greater than 1000 nM and the IC50 [1] was less than 30 nM. It also gave an IC50 [2] greater than 10000 nM.
`Cc1ccc(-c2cc3c(s2)Cc2c(-c4ccc5cnn(C)c5c4)n[nH]c2-3)cn1` [Compound 11, 3-(1-methyl-1H-indazol-6-yl)-6-(6-methylpyridin-3-yl)-1,4-dihydrothieno [2′,3′:4,5]cyclopenta[1,2-c] pyrazole] showed an IC50 (FLT3-D835Y mutant kinase) of less than 1 nM, an IC50 (MET kinase) greater than 1000 nM and an IC50 [1] of 30 to 100 nM. The IC50 [2] was greater than 10000 nM.
With `C[C@@H]1CN(Cc2cccc(-c3cc4c(s3)Cc3c(-c5ccc6cnn(C)c6c5)n[nH]c3-4)c2)C[C@H](C)O1` [Compound 12, (2S,6R)-2,6-dimethyl-4-(3-(3-(1-methyl-1H-indazol-6-yl)-1,4-dihydrothieno [2′,3′:4,5]cyclopenta[1,2-c]pyrazol-6-yl)benzyl) morpholine] the IC50 (FLT3-D835Y mutant kinase) was 1 to 10 nM, the IC50 (MET kinase) was greater than 1000 nM and the IC50 [1] was 100 to 300 nM. It also gave an IC50 [2] greater than 10000 nM.
With `Cn1ncc2ccc(-c3n[nH]c4c3Cc3sc(-c5cccc(CN6CCOCC6)c5)cc3-4)cc21` [Compound 13, 4-(3-(3-(1-methyl-1H-indazol-6-yl)-1,4-dihydro-thieno[2′,3′:4,5]cyclopenta [1,2-c]pyrazol-6-yl)benzyl) morpholine] the IC50 (FLT3-D835Y mutant kinase) was 1 to 10 nM, the IC50 (MET kinase) was greater than 1000 nM and the IC50 [1] was 30 to 100 nM. For the same molecule, the IC50 [2] was greater than 10000 nM.
In the case of `Cn1ncc2ccc(-c3n[nH]c4c3Cc3sc(-c5ccc(CN6CCOCC6)cn5)cc3-4)cc21` [Compound 95, 4-((6-(3-(1-methyl-1H-indazol-6-yl)-1,4-dihydro-thieno[2′,3′:4,5]cyclopenta [1,2-c]pyrazol-6-yl)pyridin-3-yl)methyl) morpholine], the IC50 (FLT3-D835Y mutant kinase) is reported as less than 1 nM and the IC50 (MET kinase) is reported as greater than 1000 nM.
